According to patent US12404289B2 (Gilead Sciences, Inc., priority 2020, dated 2025):

Test system: Respiratory syncytial virus (RSV) strain A2
Test: Hep-2 RSV2 384-well assay (EC50-HEP2-384)
Type: cell-based
Conditions: HEp-2 cells, RSV A2, MOI=4, 4 days, Table 3

Point of comparison: `CCC(CC)COC(=O)[C@H](C)N[P@@](=O)(OC[C@H]1O[C@@](C#N)(c2ccc3c(N)ncnn23)[C@H](OC(=O)C(C)C)[C@@H]1OC(=O)C(C)C)Oc1cccc2c1CCCC2` [Example 146, (2R,3R,4R,5R)-2-(4-aminopyrrolo[2,1-f][1,2,4]triazin-7-yl)-2-cyano-5-((((R)—(((S)-1-(2-ethylbutoxy)-1-oxopropan-2-yl)amino)((5,6,7,8-tetrahydronaphthalen-1-yl)oxy)phosphoryl)oxy)methyl)tetrahydrofuran-3,4-diyl bis(2-methylpropanoate)], EC50 459 nM. Against it:
- CCC(CC)COC(=O)[C@H](C)N[P@](=O)(OC[C@H]1O[C@@](C#N)(c2ccc3c(N)ncnn23)[C@H](OC(C)=O)[C@@H]1OC(C)=O)Oc1cccc2c1CCCC2 [Example 143, (2R,3R,4R,5R)-2-(4-aminopyrrolo[2,1-f][1,2,4]triazin-7-yl)-2-cyano-5-((((S)—(((S)-1-(2-ethylbutoxy)-1-oxopropan-2-yl)amino)((5,6,7,8-tetrahydronaphthalen-1-yl)oxy)phosphoryl)oxy)methyl)tetrahydrofuran-3,4-diyl Diacetate] — 1.6-fold higher, 737 nM
- CCC(CC)COC(=O)[C@H](C)N[P@@](=O)(OC[C@H]1O[C@@](C#N)(c2ccc3c(N)ncnn23)[C@H](OC(C)=O)[C@@H]1OC(C)=O)Oc1cccc2c1CCCC2 [Example 147, (2R,3R,4R,5R)-2-(4-aminopyrrolo[2,1-f][1,2,4]triazin-7-yl)-2-cyano-5-((((R)—(((S)-1-(2-ethylbutoxy)-1-oxopropan-2-yl)amino)((5,6,7,8-tetrahydronaphthalen-1-yl)oxy)phosphoryl)oxy)methyl)tetrahydrofuran-3,4-diyl Diacetate] — within 1.5-fold, 334 nM

Same assay, conditions: human respiratory syncytial virus, HEp-2, 96 h, HEp-2 cells, RSV A2, MOI=4, 4 days, Table 3

Point of comparison: `CCOC(=O)[C@H](C)NP(=O)(OC[C@H]1O[C@@](C#N)(c2ccc3c(N)ncnn23)[C@H](OC(=O)CC(C)C)[C@@H]1OC(=O)CC(C)C)Oc1ccc(C(C)(C)C)cc1` (stereo partly drawn) [Example 158, (2R,3R,4R,5R)-2-(4-aminopyrrolo[2,1-f][1,2,4]triazin-7-yl)-5-((((4-(tert-butyl)phenoxy)(((S)-1-ethoxy-1-oxopropan-2-yl)amino)phosphoryl)oxy)methyl)-2-cyanotetrahydrofuran-3,4-diyl bis(3-methylbutanoate)], EC50 272 nM. Against it:
- CCC(CC)COC(=O)[C@H](C)NP(=O)(OC[C@H]1O[C@@](C#N)(c2ccc3c(N)ncnn23)[C@H](O)[C@@H]1O)Oc1ccccn1 (single isomer, unassigned) [Example 175a] — 18-fold higher, 5000 nM
- CCC(CC)COC(=O)[C@H](C)N[P@](=O)(OC[C@H]1O[C@@](C#N)(c2ccc3c(N)ncnn23)[C@H](OC(=O)C(C)C)[C@@H]1OC(=O)C(C)C)Oc1cccc2c1CCCC2 [Example 144, (2R,3R,4R,5R)-2-(4-aminopyrrolo[2,1-f][1,2,4]triazin-7-yl)-2-cyano-5-((((S)—(((S)-1-(2-ethylbutoxy)-1-oxopropan-2-yl)amino)((5,6,7,8-tetrahydronaphthalen-1-yl)oxy)phosphoryl)oxy)methyl)tetrahydrofuran-3,4-diyl bis(2-methylpropanoate)] — 2.9-fold higher, 780 nM
- CC(=O)O[C@H]1[C@@H](OC(C)=O)[C@](C#N)(c2ccc3c(N)ncnn23)O[C@@H]1COP(=O)(N[C@@H](C)C(=O)OC1CCCCC1)Oc1ccc(C(C)(C)C)cc1 (stereo partly drawn) [Example 148, (2R,3R,4R,5R)-2-(4-aminopyrrolo[2,1-f][1,2,4]triazin-7-yl)-5-((((4-(tert-butyl)phenoxy)(((S)-1-(cyclohexyloxy)-1-oxopropan-2-yl)amino)phosphoryl)oxy)methyl)-2-cyanotetrahydrofuran-3,4-diyl Diacetate] — 4.6-fold lower, 59.3 nM
- CC(C)C(=O)O[C@H]1[C@@H](OC(=O)C(C)C)[C@](C#N)(c2ccc3c(N)ncnn23)O[C@@H]1COP(=O)(N[C@@H](C)C(=O)OC1CCCCC1)Oc1ccc(C(C)(C)C)cc1 (stereo partly drawn) [Example 149, (2R,3R,4R,5R)-2-(4-aminopyrrolo[2,1-f][1,2,4]triazin-7-yl)-5-((((4-(tert-butyl)phenoxy)(((S)-1-(cyclohexyloxy)-1-oxopropan-2-yl)amino)phosphoryl)oxy)methyl)-2-cyanotetrahydrofuran-3,4-diyl bis(2-methylpropanoate)] — 2.7-fold lower, 99.4 nM
- COCCOC(=O)[C@H](C)NP(=O)(OC[C@H]1O[C@@](C#N)(c2ccc3c(N)ncnn23)[C@H](OC(C)=O)[C@@H]1OC(C)=O)Oc1ccc(C(C)(C)C)cc1 (stereo partly drawn) [Example 150, (2R,3R,4R,5R)-2-(4-aminopyrrolo[2,1-f][1,2,4]triazin-7-yl)-5-((((4-(tert-butyl)phenoxy)(((S)-1-(2-methoxyethoxy)-1-oxopropan-2-yl)amino)phosphoryl)oxy)methyl)-2-cyanotetrahydrofuran-3,4-diyl Diacetate] — 3.5-fold lower, 78.2 nM
- COCCOC(=O)[C@H](C)NP(=O)(OC[C@H]1O[C@@](C#N)(c2ccc3c(N)ncnn23)[C@H](OC(=O)C(C)C)[C@@H]1OC(=O)C(C)C)Oc1ccc(C(C)(C)C)cc1 (stereo partly drawn) [Example 151, (2R,3R,4R,5R)-2-(4-aminopyrrolo[2,1-f][1,2,4]triazin-7-yl)-5-((((4-(tert-butyl)phenoxy)(((S)-1-(2-methoxyethoxy)-1-oxopropan-2-yl)amino)phosphoryl)oxy)methyl)-2-cyanotetrahydrofuran-3,4-diyl bis(2-methylpropanoate)] — 4.9-fold lower, 55.6 nM
- CCC(CC)COC(=O)[C@H](C)NP(=O)(OC[C@H]1O[C@@](C#N)(c2ccc3c(N)ncnn23)[C@H](OC(C)=O)[C@@H]1OC(C)=O)Oc1ccc(OC2CCCCC2)cc1 (stereo partly drawn) [Example 152, (2R,3R,4R,5R)-2-(4-aminopyrrolo[2,1-f][1,2,4]triazin-7-yl)-2-cyano-5-((((4-(cyclohexyloxy)phenoxy)(((S)-1-(2-ethylbutoxy)-1-oxopropan-2-yl)amino)phosphoryl)oxy)methyl)tetrahydrofuran-3,4-diyl Diacetate] — within 1.5-fold, 211 nM
- CCC(CC)COC(=O)[C@H](C)NP(=O)(OC[C@H]1O[C@@](C#N)(c2ccc3c(N)ncnn23)[C@H](OC(=O)C(C)C)[C@@H]1OC(=O)C(C)C)Oc1ccc(OC2CCCCC2)cc1 (stereo partly drawn) [Example 153, (2R,3R,4R,5R)-2-(4-aminopyrrolo[2,1-f][1,2,4]triazin-7-yl)-2-cyano-5-((((4-(cyclohexyloxy)phenoxy)(((S)-1-(2-ethylbutoxy)-1-oxopropan-2-yl)amino)phosphoryl)oxy)methyl)tetrahydrofuran-3,4-diyl bis(2-methylpropanoate)] — within 1.5-fold, 270 nM
- COC(C)COC(=O)[C@H](C)NP(=O)(OC[C@H]1O[C@@](C#N)(c2ccc3c(N)ncnn23)[C@H](O)[C@@H]1O)Oc1ccc(C(C)(C)C)cc1 (stereo partly drawn) [Example 155, 2-methoxypropyl ((((2R,3S,4R,5R)-5-(4-aminopyrrolo[2,1-f][1,2,4]triazin-7-yl)-5-cyano-3,4-dihydroxytetrahydrofuran-2-yl)methoxy)(4-(tert-butyl)phenoxy)phosphoryl)-L-alaninate] — 2.5-fold higher, 683 nM
- CCOC(=O)[C@H](C)NP(=O)(OC[C@H]1O[C@@](C#N)(c2ccc3c(N)ncnn23)[C@H](OC(C)=O)[C@@H]1OC(C)=O)Oc1ccc(C(C)(C)C)cc1 (stereo partly drawn) [Example 157, (2R,3R,4R,5R)-2-(4-aminopyrrolo[2,1-f][1,2,4]triazin-7-yl)-5-((((4-(tert-butyl)phenoxy)(((S)-1-ethoxy-1-oxopropan-2-yl)amino)phosphoryl)oxy)methyl)-2-cyanotetrahydrofuran-3,4-diyl Diacetate] — 3.4-fold lower, 79.5 nM
- CCC(C)(C)CCOC(=O)[C@H](C)NP(=O)(OC[C@H]1O[C@@](C#N)(c2ccc3c(N)ncnn23)[C@H](OC(=O)C(C)C)[C@@H]1OC(=O)C(C)C)Oc1ccc(C(C)(C)C)cc1 (stereo partly drawn) [Example 160, (2R,3R,4R,5R)-2-(4-aminopyrrolo[2,1-f][1,2,4]triazin-7-yl)-5-((((4-(tert-butyl)phenoxy)(((S)-1-((3,3-dimethylpentyl)oxy)-1-oxopropan-2-yl)amino)phosphoryl)oxy)methyl)-2-cyanotetrahydrofuran-3,4-diyl bis(2-methylpropanoate)] — within 1.5-fold, 219 nM
- COC(C)COC(=O)[C@H](C)NP(=O)(OC[C@H]1O[C@@](C#N)(c2ccc3c(N)ncnn23)[C@H](OC(C)=O)[C@@H]1OC(C)=O)Oc1ccc(C(C)(C)C)cc1 (stereo partly drawn) [Example 161, (2R,3R,4R,5R)-2-(4-aminopyrrolo[2,1-f][1,2,4]triazin-7-yl)-5-((((4-(tert-butyl)phenoxy)(((2S)-1-(2-methoxypropoxy)-1-oxopropan-2-yl)amino)phosphoryl)oxy)methyl)-2-cyanotetrahydrofuran-3,4-diyl Diacetate] — 2.4-fold lower, 113 nM
- COC(C)COC(=O)[C@H](C)NP(=O)(OC[C@H]1O[C@@](C#N)(c2ccc3c(N)ncnn23)[C@H](OC(=O)C(C)C)[C@@H]1OC(=O)C(C)C)Oc1ccc(C(C)(C)C)cc1 (stereo partly drawn) [Example 162, (2R,3R,4R,5R)-2-(4-aminopyrrolo[2,1-f][1,2,4]triazin-7-yl)-5-((((4-(tert-butyl)phenoxy)(((2S)-1-(2-methoxypropoxy)-1-oxopropan-2-yl)amino)phosphoryl)oxy)methyl)-2-cyanotetrahydrofuran-3,4-diyl bis(2-methylpropanoate)] — 3.8-fold lower, 72.5 nM
- CC(C)C(=O)O[C@H]1[C@@H](OC(=O)C(C)C)[C@](C#N)(c2ccc3c(N)ncnn23)O[C@@H]1COP(=O)(N[C@@H](C)C(=O)OCC1CCCCC1)Oc1ccc(C(C)(C)C)cc1 (stereo partly drawn) [Example 164, (2R,3R,4R,5R)-2-(4-aminopyrrolo[2,1-f][1,2,4]triazin-7-yl)-5-((((4-(tert-butyl)phenoxy)(((S)-1-(cyclohexylmethoxy)-1-oxopropan-2-yl)amino)phosphoryl)oxy)methyl)-2-cyanotetrahydrofuran-3,4-diyl bis(2-methylpropanoate)] — 2.5-fold lower, 107 nM
- CC(C)C(=O)O[C@H]1[C@@H](OC(=O)C(C)C)[C@](C#N)(c2ccc3c(N)ncnn23)O[C@@H]1COP(=O)(N[C@@H](C)CC(=O)OC1CCC1)Oc1ccc(C(C)(C)C)cc1 (stereo partly drawn) [Example 167, (2R,3R,4R,5R)-2-(4-aminopyrrolo[2,1-f][1,2,4]triazin-7-yl)-5-((((4-(tert-butyl)phenoxy)(((S)-4-cyclobutoxy-4-oxobutan-2-yl)amino)phosphoryl)oxy)methyl)-2-cyanotetrahydrofuran-3,4-diyl bis(2-methylpropanoate)] — 18-fold higher, 5000 nM

Test system: SARS-CoV-2
Test: SARS-CoV-2 antiviral assay (A549-hACE2, Nano luciferase)
Type: cell-based
Conditions: A549-hACE2 cells, SARS-CoV2-Nano, MOI 0.025, 48 h; Table 4; read-out: EC50 SARS CoV2

In the case of `CCC(CC)COC(=O)[C@H](C)NP(=O)(OC[C@H]1O[C@@](C#N)(c2ccc3c(N)ncnn23)[C@H](O)[C@@H]1O)Oc1ccccn1` (single isomer, unassigned) [Example 175a], the EC50 is reported as 3360 nM.
